# Publication PMC5292991, “Drug trapping in hERG K^+ channels: (not) a matter of drug size?” (Medchemcomm, 2015)
# Molecular target: T1, hERG K+ channel (Kv11.1) (Homo sapiens, UniProt Q12809)
# T1 construct: gene KCNH2
# Assay: two-microelectrode voltage clamp, hERG tail current inhibition in Xenopus oocytes; alanine mutants Y652A and F656A reduce block
# Format: cell-based
# T1 sequence (Q12809 whole entry): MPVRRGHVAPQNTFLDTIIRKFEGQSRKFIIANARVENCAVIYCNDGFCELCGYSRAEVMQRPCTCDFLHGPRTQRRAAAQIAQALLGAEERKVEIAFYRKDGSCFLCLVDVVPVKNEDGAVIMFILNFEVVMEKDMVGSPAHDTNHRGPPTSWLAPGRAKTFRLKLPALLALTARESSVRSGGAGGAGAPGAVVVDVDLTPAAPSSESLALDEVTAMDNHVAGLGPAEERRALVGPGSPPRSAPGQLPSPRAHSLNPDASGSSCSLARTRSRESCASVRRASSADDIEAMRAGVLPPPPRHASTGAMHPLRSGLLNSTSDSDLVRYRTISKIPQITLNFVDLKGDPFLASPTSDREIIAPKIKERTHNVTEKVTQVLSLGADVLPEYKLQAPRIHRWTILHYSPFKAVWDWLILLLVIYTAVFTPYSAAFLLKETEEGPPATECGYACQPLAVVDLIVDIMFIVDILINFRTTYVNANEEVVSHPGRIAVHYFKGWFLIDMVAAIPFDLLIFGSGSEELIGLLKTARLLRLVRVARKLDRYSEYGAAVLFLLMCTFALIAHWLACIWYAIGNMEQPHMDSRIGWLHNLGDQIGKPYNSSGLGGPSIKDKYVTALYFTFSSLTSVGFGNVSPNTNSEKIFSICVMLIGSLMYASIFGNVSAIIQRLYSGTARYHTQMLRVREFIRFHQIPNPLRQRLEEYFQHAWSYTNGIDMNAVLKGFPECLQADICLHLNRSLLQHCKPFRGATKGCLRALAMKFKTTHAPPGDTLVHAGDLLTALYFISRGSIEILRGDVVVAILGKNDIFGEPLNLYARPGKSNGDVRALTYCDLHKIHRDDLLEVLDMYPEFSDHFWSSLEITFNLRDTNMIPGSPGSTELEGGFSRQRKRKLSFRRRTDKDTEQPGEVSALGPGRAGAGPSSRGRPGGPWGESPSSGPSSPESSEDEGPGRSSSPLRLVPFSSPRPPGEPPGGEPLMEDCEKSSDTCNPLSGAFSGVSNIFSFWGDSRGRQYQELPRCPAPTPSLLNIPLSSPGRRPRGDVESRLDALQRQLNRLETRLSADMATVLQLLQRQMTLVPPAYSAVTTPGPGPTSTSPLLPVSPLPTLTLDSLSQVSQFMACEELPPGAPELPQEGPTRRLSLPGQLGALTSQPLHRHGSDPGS
smiles,measurement,value
"O=C(CCc1ccccc1)c1ccccc1OCC(O)CN1CCN(C(c2ccccc2)(c2ccccc2)c2ccccc2)CC1 (stereo not shown) [FB213, 1-[2-(2-hydroxy-3-(4-tritylpiperazin-1-yl)-propoxy)phenyl]-3-phenylpropan-1-one]",IC50,47.1 ± 5.1 µM
